# From patent publication US9730446B2, “Herbicidal compositions comprising 4-amino-3-chloro-6-(4-chloro-2-fluoro-3-methoxyphenyl)pyridine-2-carboxylic acid or a derivative thereof and propyzamide” (Dow AgroSciences LLC, priority 2013, dated 2017)
# How the values were obtained:
# Type in all cases: in vivo
# winter oilseed rape = experiment: Field trial, visual crop injury ratings; conditions: varying rates, crop Growth Stage 39-50, 32, 49, and 74 days after treatment, in each case
# Description: (§1) Multiple small plot research experiments were conducted to evaluate efficacy and tolerance of winter oilseed rape to compositions described herein. Typical small plots (2-4×4-10 meters (m)) were used in growers' fields under natural conditions with normal commercial cultural practices. Backpack sprayers were used to apply all treatments based on unit area. The methyl ester of formula (I) and propyzamide were tested alone and in combination at varying rates. Application water volume was 150 L/ha. Crop stage was at Growth Stage 39-50. Visual crop injury ratings were collected 32, 49, and 74 days after treatment. […] The reported values are means.
# [1] = tested on: VERSS Veronica sp. (speedwell); experiment: Field trial, visual weed control in winter oilseed rape
# Description: as §1, with “Application water volume was 150 L/ha.” left out, “means. […] The following abbreviations are used in Tables 2-4: • GERSS Geranium sp. (cranesbill) • POAAN Poa annua (annual bluegrass) • VERSS Veronica sp.” for “means.”
# [2] = tested on: POAAN Poa annua (annual bluegrass); experiment: as above
# Description: as §1, with “Application water volume was 150 L/ha.” left out, “means. […] The following abbreviations are used in Tables 2-4: • GERSS Geranium sp. (cranesbill) • POAAN Poa annua (annual bluegrass) • VERSS Veronica sp.” for “means.”
# [3] = tested on: GERSS Geranium sp. (cranesbill); experiment: as above
# Description: as §1, with “Application water volume was 150 L/ha.” left out, “means. […] The following abbreviations are used in Tables 2-4: • GERSS Geranium sp. (cranesbill) • POAAN Poa annua (annual bluegrass) • VERSS Veronica sp.” for “means.”
# [4] = tested on: CHEAL Chenopodium album L. (common lambsquarters); experiment: Postemergent herbicidal activity, greenhouse; conditions: foliar, 14 d
# Description: (§2) Evaluation of Postemergent Herbicidal Activity. Seeds or nutlets of the desired test plant species were planted in Sun Gro Metro-Mix® 360 planting mixture, which typically has a pH of 6.0 to 6.8 and an organic matter content of about 30 percent, in plastic pots with a surface area of 64 square centimeters (cm^2). […] The plants were grown for 7-21 days (d) in a greenhouse with an approximate 15 hour (h) photoperiod which was maintained at about 23-29° C. during the day and 22-28° C. during the night. Nutrients and water were added on a regular basis and supplemental lighting was provided with overhead metal halide 1000-Watt lamps as necessary. The plants were employed for testing when they reached the first or second true leaf stage.
# (§3) A weighed amount, determined by the highest rate to be tested, of each test compound was placed in a 25 milliliter (mL) glass vial and was dissolved in 4 mL of a 97:3 volume per volume (v/v) mixture of acetone and dimethyl sulfoxide (DMSO) to obtain concentrated stock solutions. […] The concentrated stock solutions obtained were diluted with 20 mL of an aqueous mixture containing acetone, water, isopropyl alcohol, DMSO, Atplus 411F crop oil concentrate, and Triton® X-155 surfactant in a 48.5:39:10:1.5:1.0:0.02 v/v ratio to obtain spray solutions containing the highest application rates. Additional application rates were obtained by serial dilution of 12 mL of the high rate solution into a solution containing 2 mL of a 97:3 v/v mixture of acetone and DMSO and 10 mL of an aqueous mixture containing acetone, water, isopropyl alcohol, DMSO, Atplus 411F crop oil concentrate, and Triton X-155 surfactant in a 48.5:39:10:1.5:1.0:0.02 v/v ratio to obtain 1/2×, 1/4×, 1/8× and 1/16× rates of the high rate. Compound requirements are based upon a 12 mL application volume at a rate of 187 liters per hectare (L/ha). Formulated compounds were applied to the plant material with an overhead Mandel track sprayer equipped with 8002E nozzles calibrated to deliver 187 L/ha over an application area of 0.503 square meters (m^2) at a spray height of 18 inches (43 cm) above the average plant canopy height. Control plants were sprayed in the same manner with the solvent blank.
# (§4) Treatments consisted of the methyl ester of 4-amino-3-chloro-6-(4-chloro-2-fluoro-3-methoxyphenyl)pyridine-2-carboxylic acid (Cmpd 1) as technical grade material and propyzamide (Kerb 50 W) alone and in combination.
# (§5) The treated plants and control plants were placed in a greenhouse as described above and watered by subirrigation to prevent wash-off of the test compounds. After 14 d, the condition of the test plants as compared with that of the untreated plants was determined visually and scored on a scale of 0 to 100 percent where 0 corresponds to no injury and 100 corresponds to complete kill.
# (§6) Colby's equation was used to determine the herbicidal effects expected from the mixtures (Colby, S. R. Calculation of the synergistic and antagonistic response of herbicide combinations. Weeds 1967, 15, 20-22). More specifically, the following equation was used to calculate the expected activity of mixtures containing two active ingredients, A and B: Expected=A+B−(A×B/100) A=observed efficacy of active ingredient A at the same concentration as used in the mixture; B=observed efficacy of active ingredient B at the same concentration as used in the mixture.
# [5] = tested on: AMARE Amaranthus retroflexus L. (redroot pigweed); experiment: Postemergent herbicidal activity, greenhouse; conditions: foliar, 14 d
# Description: as §2, §3, §4, §5, §6
# [6] = tested on: VIOTR Viola tricolor L. (wild violet); experiment: Postemergent herbicidal activity, greenhouse; conditions: foliar, 14 d
# Description: as §2, §3, §4, §5, §6
# [7] = tested on: BRSNW Brassica napus (winter oilseed rape); experiment: Postemergent herbicidal activity, greenhouse; conditions: foliar, 14 d
# Description: as §2, §3, §4, §5, §6
# [8] = tested on: IPOHE Ipomoea hederacea (L.) Jacq. (ivyleaf morningglory); experiment: Postemergent herbicidal activity, greenhouse; conditions: foliar, 14 d
# Description: as §2, §3, §4, §5, §6
# [9] = tested on: EPHHL Euphorbia heterophylla L. (wild poinsettia); experiment: Postemergent herbicidal activity, greenhouse; conditions: foliar, 14 d
# Description: as §2, §3, §4, §5, §6
# [10] = tested on: GLXMA Glycine max (volunteer soybean); experiment: Postemergent herbicidal activity, greenhouse; conditions: foliar, 14 d
# Description: as §2, §3, §4, §5, §6
# [11] = tested on: POLCO Polygonum convolvulus L. (wild buckwheat); experiment: Postemergent herbicidal activity, greenhouse; conditions: foliar, 14 d
# Description: as §2, §3, §4, §5, §6
# [12] = tested on: CIRAR Cirsium arvense (L.) Scop. (Canada thistle); experiment: Postemergent herbicidal activity, greenhouse; conditions: foliar, 14 d
# Description: as §2, §3, §4, §5, §6
# [13] = tested on: SETFA Setaria faberi Herrm. (giant foxtail); experiment: Postemergent herbicidal activity, greenhouse; conditions: foliar, 14 d
# Description: as §2, §3, §4, §5, §6
# [14] = tested on: STEME Stellaria media (L.) Vill. (common chickweed); experiment: Postemergent herbicidal activity, greenhouse; conditions: foliar, 14 d
# Description: as §2, §3, §4, §5, §6
# [15] = tested on: ABUTH Abutilon theophrasti Medik. (velvetleaf); experiment: Postemergent herbicidal activity, greenhouse; conditions: foliar, 14 d
# Description: as §2, §3, §4, §5, §6
# [16] = Propyzamide 250 g ai/ha, 32 DAAA
# [17] = Propyzamide 250 g ai/ha, 80 DAAA
# [18] = Propyzamide 500 g ai/ha, 32 DAAA
# [19] = Propyzamide 500 g ai/ha, 80 DAAA
# [20] = Propyzamide 750 g ai/ha, 32 DAAA
# [21] = Propyzamide 750 g ai/ha, 80 DAAA
# [22] = Propyzamide 250 g ai/ha, 58 DAAA
# [23] = Propyzamide 500 g ai/ha, 58 DAAA
# [24] = Propyzamide 750 g ai/ha, 58 DAAA
structure (smiles),measurement,setting,value
"C#CC(C)(C)NC(=O)c1cc(Cl)cc(Cl)c1 [Propyzamide, 3,5-dichloro-N-(1,1-dimethylpropynyl)benzamide]",Visual crop injury rating,winter oilseed rape,0 % injury
same,"% control rated visually, ob (observed)",[1]; [16],43.8%
same,"% control rated visually, ob (observed)",[1]; [17],100.0%
same,"% control rated visually, ob (observed)",[1]; [18],60.0%
same,"% control rated visually, ob (observed)",[1]; [19],100.0%
same,"% control rated visually, ob (observed)",[1]; [20],54.3%
same,"% control rated visually, ob (observed)",[1]; [21],100.0%
same,"% control rated visually, ob (observed)",[2]; [16],12.5%
same,"% control rated visually, ob (observed)",[2]; [22],12.5%
same,"% control rated visually, ob (observed)",[2]; [17],45.0%
same,"% control rated visually, ob (observed)",[2]; [18],15.0%
same,"% control rated visually, ob (observed)",[2]; [23],67.5%
same,"% control rated visually, ob (observed)",[2]; [19],95.0%
same,"% control rated visually, ob (observed)",[2]; [20],37.5%
same,"% control rated visually, ob (observed)",[2]; [24],92.5%
same,"% control rated visually, ob (observed)",[2]; [21],98.3%
same,"% control rated visually, ob (observed)",[3]; [16],5.0%
same,"% control rated visually, ob (observed)",[3]; [22],17.5%
same,"% control rated visually, ob (observed)",[3]; [17],22.5%
same,"% control rated visually, ob (observed)",[3]; [18],20.0%
same,"% control rated visually, ob (observed)",[3]; [23],35.0%
same,"% control rated visually, ob (observed)",[3]; [19],28.8%
same,"% control rated visually, ob (observed)",[3]; [20],18.8%
same,"% control rated visually, ob (observed)",[3]; [24],25.0%
same,"% control rated visually, ob (observed)",[3]; [21],33.8%
same,"% control rated visually, ob (observed)",[4]; Propyzamide 285 g ai/ha,0%
same,"% control rated visually, ob (observed)",[4]; Propyzamide 570 g ai/ha,0%
same,"% control rated visually, ob (observed)",[5]; Propyzamide 285 g ai/ha,0%
same,"% control rated visually, ob (observed)",[5]; Propyzamide 570 g ai/ha,10%
same,"% control rated visually, ob (observed)",[6]; Propyzamide 285 g ai/ha,0%
same,"% control rated visually, ob (observed)",[6]; Propyzamide 570 g ai/ha,0%
same,"% control rated visually, ob (observed)",[7]; Propyzamide 285 g ai/ha,5%
same,"% control rated visually, ob (observed)",[7]; Propyzamide 570 g ai/ha,20%
same,"% control rated visually, ob (observed)",[8]; Propyzamide 285 g ai/ha,10%
same,"% control rated visually, ob (observed)",[8]; Propyzamide 570 g ai/ha,17%
same,"% control rated visually, ob (observed)",[9]; Propyzamide 285 g ai/ha,0%
same,"% control rated visually, ob (observed)",[9]; Propyzamide 570 g ai/ha,0%
same,"% control rated visually, ob (observed)",[10]; Propyzamide 285 g ai/ha,10%
same,"% control rated visually, ob (observed)",[10]; Propyzamide 570 g ai/ha,15%
same,"% control rated visually, ob (observed)",[11]; Propyzamide 285 g ai/ha,5%
same,"% control rated visually, ob (observed)",[11]; Propyzamide 570 g ai/ha,15%
same,"% control rated visually, ob (observed)",[12]; Propyzamide 285 g ai/ha,0%
same,"% control rated visually, ob (observed)",[12]; Propyzamide 570 g ai/ha,0%
same,"% control rated visually, ob (observed)",[13]; Propyzamide 285 g ai/ha,0%
same,"% control rated visually, ob (observed)",[13]; Propyzamide 570 g ai/ha,0%
same,"% control rated visually, ob (observed)",[14]; Propyzamide 285 g ai/ha,7%
same,"% control rated visually, ob (observed)",[14]; Propyzamide 570 g ai/ha,75%
same,"% control rated visually, ob (observed)",[15]; Propyzamide 285 g ai/ha,5%
same,"% control rated visually, ob (observed)",[15]; Propyzamide 570 g ai/ha,0%
